Earlier results, collected in publication PMC12833850, “Hybridization Approach Applied to Umbelliferon and Vanilloids toward New Inhibitors of Carbonic Anhydrases IX and XII with In Vitro Antiproliferative and Anti-inflammatory Activities” (Journal of Medicinal Chemistry, 2026).

Biological target: T1, hCA IX (Homo sapiens, UniProt Q16790)
T1 construct: made in house
Conditions: data already reported; ref Maresca and Supuran, 2010

SMILES: O=c1ccc2cc(O)ccc2o1 [Compound 2, 6-hydroxycoumarin]
- Ki: 198 nM
